Reference: patent US20250250229A1, “ARYLTHIO DERIVATIVES WITH PHARMACOLOGICAL ACTIVITY” (IRIDEA S.R.L., priority 2022, published 2025)

Key:
[1] = tested on: neutrophil and macrophage recruitment; assay: In vivo anti-inflammatory activity test, P. aeruginosa RP73 lung infection, BALF cell analysis; set-up: species or system C57Bl/6N mice; conditions: 12 mg/kg subcutaneous daily, BALF six days after infection, compared with carrier only
Protocol: In Vivo Anti-Inflammatory Activity Test Immunocompetent C57Bl/6N male mice (8-10 weeks) were infected with strains of P. aeruginosa RP73 (4-6×10^5 CFU, Colony Forming Units), incorporated in agar microbeads. The microbeads were prepared by following the procedures described in the literature (Bayes H K, Ritchie N, Irvine S, Evans T J. A murine model of early Pseudomonas aeruginosa lung disease with transition to chronic infection. Sci Rep. 2016 Nov. 2; 6:35838. doi: 10.1038/srep35838), and they were administered to the mice by intratracheal injection. Subcutaneous administration of the compounds according to the invention at the concentration of 12 mg/kg, or of the carrier, was conducted on the mice 18 hours before inoculation of the bacterium, and repeated daily for 6 days. The general state of health of the mice was analysed once or twice a day throughout the duration of the experiment. Six days after infection, the mice were euthanised by carbon dioxide inhalation. Bronchoalveolar lavage fluid analysis (BALF) indicated a significant reduction in the number of neutrophils in the treated mice compared with those treated with the carrier only.

[2] = tested on: chorioallantoic membrane (CAM); assay: In vivo assay on chorioallantoic membrane (CAM), VEGF165-induced neovascularisation; set-up: species or system hen; conditions: day 14, VEGF165 alone = 100
Protocol: In Vivo Assays on Chorioallantoic Membrane (CAM)
42 fertilised hens' eggs were disinfected with a 20% ethanol solution and incubated at a temperature of 37-38° C. and a humidity of 40-60% in a rotary egg incubator. The eggs were positioned horizontally and incubated for the next 11 days to promote embryo development.
On day 11, the position of the CAM was identified by candling for 36 eggs, the air chamber was removed, and slits made in the shell in order to position sterile paper filters saturated with the effectors at different concentrations (V=2.5 uL) on the CAM. On day 14, CAMs were photographed with a stereomicroscope (Carl Zeiss Vision GmbH). Quantitative analysis was conducted (count of vessels leading from the filter) by skeletonizing the images and using AngioTool64 0.6a software, and the percentage of neovascularisation at the various concentrations of effectors was determined (Table 2).

[3] = tested on: rat aorta rings; assay: Ex vivo assay of anti-angiogenic activity on rat aorta rings (VEGF-induced sprouting); assay type: cell-based; conditions: VEGF 30 ng/mL, compound 100 μM, counted after 6 days' incubation; VEGF alone 17 ± 4
Protocol: Ex Vivo Assays of Anti-Angiogenic Activity on Rat Aorta Rings
Thoracic aortas obtained from 5- to 10-week-old male rats were cut into rings measuring about 1 mm. The rings were placed on the base of a 24-well plate (positioning the luminal axis parallel to the base of the well), and incubated with a fibrin-polymerising solution. After 5 min, VEGF (30 ng/mL) was added to the wells in an appropriate culture medium in the presence or absence of the compounds according to the invention at the concentration of 100 μM. The medium was changed three times a week as from day 3. The angiogenic response was measured by counting the number of new vessels that sprouted over time (Table 1). The endothelial filaments were counted after 6 days' incubation.

[4] = VEGF165 0.1 ug + compound 0.0001 ug on filter
[5] = VEGF165 0.1 ug + compound 0.001 ug on filter
[6] = VEGF165 0.1 ug + compound 0.01 ug on filter
[7] = VEGF165 0.1 ug + compound 0.1 ug on filter
[8] = VEGF165 0.1 ug + compound 1 ug on filter

Molecule | Macrophages (%) [1] [%] | Neutrophils (%) [1] [%] | Total cells (%) [1] [%] | Vascularisation (%) [2, 4] [%] | Vascularisation (%) [2, 5] [%] | Vascularisation (%) [2, 6] [%] | Vascularisation (%) [2, 7] [%] | Vascularisation (%) [2, 8] [%] | Endothelial filaments (standardised for the number of rings) [3]
CC(C)(C)c1cc(NC(=O)CCN=C(N)N)c(SCCc2ccccc2)c(NC(=O)CCN=C(N)N)c1 [IRI-N-19001, N,N′-(5-(tert-butyl)-2-(phenethylthio)-1,3-phenylene)bis(3-((diaminomethylene)amino)propanamide)] | −10 ± 3 | −61 ± 5 | −55 ± 12 | 45 | 37 | 33 | 26 | 10 | 1.0 ± 0.4
CC(C)(C)c1cc(NC(=O)CCCN=C(N)N)c(SCCc2ccccc2)c(NC(=O)CCCN=C(N)N)c1 [IRI-N-19025, N,N′-(5-(tert-butyl)-2-(phenethylthio)-1,3-phenylene)bis(4-((diaminomethylene)amino)butanamide)] | −8 ± 5 | −55 ± 9 | −50 ± 10 |  |  |  |  |  | 1.9 ± 1.1
N,N′-(2-(benzylthio)-5-(tert-butyl)-1,3-(phenylene)bis(3-((diaminomethylene)amino) propanamide) [IRI-N-19002] | −9 ± 4 | −60 ± 6 | −54 ± 9 | 48 | 42 | 36 | 31 | 13 | 1.4 ± 0.5
CC(C)(C)c1cc(NC(=O)CCN=C(N)N)c(SCc2ccc3ccccc3c2)c(NC(=O)CCN=C(N)N)c1 [IRI-N-19004, N,N′-(5-(tert-butyl)-2-((naphthalen-2-ylmethyl)thio)-1,3-phenylene)bis(3-((diaminomethylene)amino)propanamide)] | −5 ± 4 | −58 ± 8 | −56 ± 8 | 38 | 33 | 24 | 19 | 8 | 1.2 ± 0.5
